Consider three molecules from publication PMC6359675, “Functionalization of the Chalcone Scaffold for the Discovery of Novel Lead Compounds Targeting Fungal Infections” (Molecules, 2019).

Several values for one entry are separate records, joined by “and”; a condition that tells them apart may be missing. Equal values may be shown once. Bounds are passed on as bounds.

Broadly, the melting point is the temperature of the solid-liquid transition. A word on the inhibition: it is the drop in the measured response relative to a control, in per cent.

The first data set relates to C. utilis. Nature of the data set: In vitro susceptibility testing, C. utilis clinical isolate. Format: cell-based. The settings on record: Williopsis jadinii; clinical isolate; read-out: IC50 C. utilis. The text has this: (§1) The yeasts included in the present study were Candida albicans ATCC 10231 (American Type Culture Collection) and a collection of yeasts recovered from a variety of clinical specimens, i.e., blood, urine, genital swabs, bronchoalveolar lavage, nail specimens, collected at the Microbiology Unit, St. Orsola Malpighi University Hospital, Bologna, Italy. The clinical strain isolates were identified by standard procedures, including colony morphology on chromogenic agar (CHROMagar Candida medium, Becton Dickinson, Heidelberg, Germany) and confirmed by MALDI Biotyper System using matrix-assisted laser desorption ionization–time of flight mass spectrometry (MALDI-TOF MS, Bruker Daltonik, GmbH, Germany).
(§2) The in vitro antifungal activity of the chalcones was evaluated by a microdilution broth method in accordance with the guidelines provided by the EUCAST Edef 7.3 [22]. Briefly, all strains were cultured on Sabauraud dextrose, then inocula, prepared at 0.5 McFarland, were diluted 1:20 in RPMI-1640 medium (Gibco®, ThermoFisher Scientific Inc., Waltham, MA, USA), containing glucose 2%, 0.3% levo-glutamine buffered to pH 7.0 with 0.165 M 3-(N-morpholino)propanesulfonic acid (MOPS) to yield 1-5 × 10^5 cells/mL. A total of 100 µL of the yeast suspension was inoculated in a 96-well microplate and incubated with 100 µL of serially 2-fold dilution of the compound in the range 200–6.25 µM. The following controls were included: yeast suspensions incubated in RPMI-1640 culture medium (positive growth control), or supplemented with dilutions of DMSO, or fluconazole (Sigma-Aldrich, St. Louis, MO, USA) as a commercial drug. To check the background turbidity of reagents and the sterility of the procedure, dilutions of each compound were incubated in RPMI-1640 culture medium, without yeast inoculum. The inoculated plate was incubated at 37 °C for 24 h, and subsequently the optical density at 630 nm was measured by the Multiskan Ascent microplate reader (Thermo Fisher Scientific Inc.). The effectiveness of the compounds was expressed as percent inhibition relative to the positive growth control when the inhibition […] the 50% at 100 µM. The IC50 value was determined by interpolation of the dose–response curves generated by plotting the percentages of growth inhibition, relative to the drug-free control (set to 100% of growth), as a function of the tested concentrations (on a logarithm scale). Statistical analysis was carried out by the nonlinear regression method using GraphPad Prism version 5.0 for Windows (GraphPad Software, San Diego, CA, USA). All assays were performed in triplicate and at least two independent experiments were carried out.
`OC(Cn1cncn1)(Cn1cncn1)c1ccc(F)cc1F` [FLC, fluconazole, reference compound]: the IC50 was 1.56 µM and 0.5 µg/mL.

Another data set concerns C. parapsilosis. The experiment in a line: In vitro susceptibility testing, C. parapsilosis clinical isolate. It counts as cell-based. To be noted: Lodderomyces parapsilosis; clinical isolate; read-out: IC50 C. parapsilosis.
Description: as §1, §2
As to `OC(Cn1cncn1)(Cn1cncn1)c1ccc(F)cc1F` [FLC, fluconazole, reference compound], the IC50 is 37 nM and 0.01 µg/mL.

The test system of a further data set is R. mucilaginosa. The experiment in a line: In vitro susceptibility testing, R. mucilaginosa clinical isolate. Format: cell-based. To be noted: clinical isolate; read-out: IC50 R. mucilaginosa.
Description: as §1, §2
As to `OC(Cn1cncn1)(Cn1cncn1)c1ccc(F)cc1F` [FLC, fluconazole, reference compound], the IC50 was 1.6 mM and 491 µg/mL.

The subject of the next data set is C. lusitaniae. The experiment in a line: In vitro susceptibility testing, C. lusitaniae clinical isolate. The settings on record: Clavispora lusitaniae; clinical isolate; read-out: IC50 C. lusitaniae. It counts as cell-based.
Description: as §1, §2
Turning to `OC(Cn1cncn1)(Cn1cncn1)c1ccc(F)cc1F` [FLC, fluconazole, reference compound], the IC50 is 50 nM and 0.015 µg/mL.

Another data set has as its system S. clavata. The experiment in a line: In vitro susceptibility testing, S. clavata clinical isolate. It counts as cell-based. The settings on record: clinical isolate; read-out: IC50 S. clavata.
Description: as §1, §2
As for `OC(Cn1cncn1)(Cn1cncn1)c1ccc(F)cc1F` [FLC, fluconazole, reference compound], the IC50 was 40 nM and 0.012 µg/mL.

A further data set deals with C. neoformans. The experiment in a line: In vitro susceptibility testing, C. neoformans clinical isolate. The settings on record: Cryptococcus neoformans; clinical isolate; read-out: IC50 C. neoformans. It counts as cell-based.
Description: as §1, §2
For the molecule `OC(Cn1cncn1)(Cn1cncn1)c1ccc(F)cc1F` [FLC, fluconazole, reference compound], the IC50 is 256 µM and 78.4 µg/mL.

Another data set deals with C. albicans. The experiment in a line: In vitro susceptibility testing, C. albicans clinical isolate. Format: cell-based. The settings on record: Candida albicans; clinical isolate; mean and 95% confidence interval; read-out: IC50 C. albicans.
Description: as §1, §2
For the molecule `OC(Cn1cncn1)(Cn1cncn1)c1ccc(F)cc1F` [FLC, fluconazole, reference compound], the IC50 is 420 nM and 0.13 µg/mL.

The subject of a further data set is C. krusei. The experiment in a line: In vitro susceptibility testing, C. krusei clinical isolate. Format: cell-based. The settings on record: Pichia kudriavzevii; clinical isolate; read-out: IC50 C. krusei.
Description: as §1, §2
Regarding `OC(Cn1cncn1)(Cn1cncn1)c1ccc(F)cc1F` [FLC, fluconazole, reference compound], the IC50 is 64.6 µM and 19.8 µg/mL.

In another data set the test system is C. tropicalis. Nature of the data set: In vitro susceptibility testing, C. tropicalis clinical isolate. It counts as cell-based. The settings on record: Candida tropicalis; clinical isolate; read-out: IC50 C. tropicalis.
Description: as §1, §2
On to `OC(Cn1cncn1)(Cn1cncn1)c1ccc(F)cc1F` [FLC, fluconazole, reference compound], for which the IC50 turned out to be 400 nM.

System in a further data set: not given
Experiment: not given
Conditions: not given
Regarding `C#CCOc1ccc(C(=O)/C=C/c2ccc(Cl)cc2Cl)c(OCC#C)c1` [Compound 23, (E)-1-(2,4-bis(prop-2-yn-1-yloxy)phenyl)-3-(2,4-dichlorophenyl)prop-2-en-1-one], the melting point was 166 to 168 °C.
The same measure, in the same setting: as for `CC(C)=CCOc1ccc(C(=O)/C=C/c2cccnc2)cc1` [Compound 32, (E)-1-(4-((3-methylbut-2-en-1-yl)oxy)phenyl)-3-(pyridin-3-yl)prop-2-en-1-one], the figure is 87 to 88 °C.

A further data set concerns C. glabrata. The experiment in a line: In vitro susceptibility testing, C. glabrata clinical isolate. It counts as cell-based. The settings on record: Nakaseomyces glabratus; clinical isolate; read-out: IC50 C. glabrata.
Description: as §1, §2
In the case of `OC(Cn1cncn1)(Cn1cncn1)c1ccc(F)cc1F` [FLC, fluconazole, reference compound], the IC50 was 14.4 µM and 4.4 µg/mL.

The test system of a further data set is C. albicans ATCC 10231. Nature of the data set: In vitro susceptibility testing, microdilution broth (EUCAST), C. albicans control strain. It counts as cell-based, Candida albicans. The settings on record: Candida albicans, ATCC10231, C. albicans ATCC 10231; mean and 95% confidence interval; read-out: IC50. The method, then: as §2
A general note: Dilution methods test growth across graded concentrations, often in twofold steps.
Turning to `OC(Cn1cncn1)(Cn1cncn1)c1ccc(F)cc1F` [FLC, fluconazole, reference compound], the IC50 turned out to be 250 nM.

The data set is the same for the next values; noted with them: Candida albicans, ATCC10231, C. albicans ATCC 10231; mean and 95% confidence interval; read-out: IC50 [μg/mL].
Regarding `OC(Cn1cncn1)(Cn1cncn1)c1ccc(F)cc1F` [FLC, fluconazole, reference compound], the IC50 is 0.07 µg/mL.

The data set is the same for the next values; noted with them: Candida albicans, ATCC10231; at 100 μM; C. albicans ATCC 10231; 24 h.
The molecule `C#CCOc1ccc(C(=O)/C=C/c2ccc(Cl)cc2Cl)c(OCC#C)c1` [Compound 23, (E)-1-(2,4-bis(prop-2-yn-1-yloxy)phenyl)-3-(2,4-dichlorophenyl)prop-2-en-1-one] gave an inhibition at 100 µM of 4.6 ± 13.8%.
Still for that read-out and setting: the figure for `CC(C)=CCOc1ccc(C(=O)/C=C/c2cccnc2)cc1` [Compound 32, (E)-1-(4-((3-methylbut-2-en-1-yl)oxy)phenyl)-3-(pyridin-3-yl)prop-2-en-1-one] is less than 1%.

The same data set, now with this note: screen at 100 μM, C. albicans ATCC 10231.
Turning to `C#CCOc1ccc(C(=O)/C=C/c2ccc(Cl)cc2Cl)c(OCC#C)c1` [Compound 23, (E)-1-(2,4-bis(prop-2-yn-1-yloxy)phenyl)-3-(2,4-dichlorophenyl)prop-2-en-1-one], the “antifungal activity against C. albicans growth, in words” value is “inactive”.
Still for that read-out and setting: as for `CC(C)=CCOc1ccc(C(=O)/C=C/c2cccnc2)cc1` [Compound 32, (E)-1-(4-((3-methylbut-2-en-1-yl)oxy)phenyl)-3-(pyridin-3-yl)prop-2-en-1-one], the entry is “devoid of any effect”.
